The target in assay [1] is T1, recombinant human ALK5 (TGF-βR1) protein (Homo sapiens, UniProt P36897).
T1 construct: purchased Life Technologies PR9075A
T1 sequence (P36897 34-503): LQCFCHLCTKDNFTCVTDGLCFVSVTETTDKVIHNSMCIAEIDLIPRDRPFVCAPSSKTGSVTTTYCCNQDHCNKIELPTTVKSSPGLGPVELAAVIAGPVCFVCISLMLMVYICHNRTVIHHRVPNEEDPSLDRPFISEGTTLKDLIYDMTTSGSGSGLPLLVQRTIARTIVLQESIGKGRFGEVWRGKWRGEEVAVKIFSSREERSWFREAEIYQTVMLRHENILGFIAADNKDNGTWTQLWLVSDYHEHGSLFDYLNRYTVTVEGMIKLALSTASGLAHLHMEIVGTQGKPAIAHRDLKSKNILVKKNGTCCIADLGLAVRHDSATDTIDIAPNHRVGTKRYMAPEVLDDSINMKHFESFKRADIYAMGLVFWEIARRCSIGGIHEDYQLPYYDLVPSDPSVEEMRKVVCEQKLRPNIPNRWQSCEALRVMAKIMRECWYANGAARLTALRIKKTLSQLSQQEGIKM
Description: Biochemical ALK5 (TGF-βR1) assay to measure pKi (LANCE Ultra ULight kinase assay). Particulars: apparent pKi from pIC50 by Cheng-Prusoff, read-out: ALK5 pKi (converted). Put shortly:
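After a 60 min room-temperature preincubation of ALK5 with compound, phosphorylation proceeds 60 min at 37 °C on ATP addition (125 μM as 5× stock). Detection: Eu-labelled phospho-Thr1342 Topo IIα antibody in EDTA buffer, pH 7.0; emission 665 nm.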
(In TR-FRET formats the signal depends on donor and acceptor labels being close together.)

For assay [2], the system named is TGF-β-stimulated SMAD3 phosphorylation in BEAS-2B cells. The assay can be described thus: Cellular ALK5 potency assay, inhibition of TGF-β stimulated pSMAD3 formation in BEAS-2B cells. It counts as cell-based. As to conditions: Homo sapiens; inhibition of TGF-β stimulated pSMAD3 formation, BEAS-2B cells; read-out: BEAS2B pIC50 (converted). In outline: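 SMAD3 phosphorylation was measured by AlphaLISA after 30 min TGF-β stimulation (10 ng/mL final) of BEAS-2B cells preincubated 1 h with compound at 37 °C. Results given as pIC50.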

Structures are written as SMILES.

For `Cc1cccc(-c2n[nH]cc2-c2ccc3nccc(C(=O)NCCN4CCOCC4)c3n2)n1` [Compound 802, 6-[3-(6-methyl-2-pyridyl)-1H-pyrazol-4-yl]-N-(2-morpholinoethyl)-1,5-naphthyridine-4-carboxamide], in assay [1], the Ki was 0.0398 to 0.316 nM. Besides, the IC50 in assay [2] was 200 to 1260 nM.
With `Cc1cccc(-c2n[nH]cc2-c2ccc3ncc(N4CCN(C)CC4)cc3n2)n1` [Compound 654, 7-(4-methylpiperazin-1-yl)-2-[3-(6-methyl-2-pyridyl)-1H-pyrazol-4-yl]-1,5-naphthyridine], in assay [1], the Ki is 0.0398 to 0.316 nM. In addition, the IC50 in assay [2] was 25.1 to 158 nM.
For `CNCCn1cc(-c2cnc3ccc(-c4c(-c5cccc(C)n5)nn5c4CNCC5)nc3c2)cn1` [Compound 64, N-methyl-2-[4-[6-[2-(6-methyl-2-pyridyl)-4,5,6,7-tetrahydropyrazolo[1,5-a]pyrazin-3-yl]-1,5-naphthyridin-3-yl]pyrazol-1-yl]ethanamine] the same measures were 0.0398 to 0.316 nM and 200 to 1260 nM.
In the case of `Cc1cccc(-c2n[nH]cc2-c2ccc3nccc(C4COCC(C)N4)c3n2)n1` (stereo not shown) [Compound 863, 3-methyl-5-[6-[3-(6-methyl-2-pyridyl)-1H-pyrazol-4-yl]-1,5-naphthyridin-4-yl]morpholine], in assay [1], the Ki is 3.98 to 31.6 nM. Besides, the IC50 in assay [2] is 200 to 1260 nM.
For `Cc1cccc(-c2[nH]cnc2-c2ccc3ncc(NCCC4CCNCC4)cc3c2)n1` [Compound 496, 6-[5-(6-methyl-2-pyridyl)-1H-imidazol-4-yl]-N-[2-(4-piperidyl)ethyl]quinolin-3-amine], the Ki in assay [1] was 0.0398 to 0.316 nM. Further, in assay [2], the IC50 was 25.1 to 158 nM.
For `Cc1cccc(-c2[nH]cnc2-c2ccc3ncc(N4CCC(C(=O)O[C@@H]5CCNC5)CC4)cc3c2)n1` [Compound 41, [(3R)-pyrrolidin-3-yl] 1-[6-[5-(6-methyl-2-pyridyl)-1H-imidazol-4-yl]-3-quinolyl]piperidine-4-carboxylate] the same measures were 0.0398 to 0.316 nM and 25.1 to 158 nM.
On to `Cc1cccc(-c2n[nH]cc2-c2ccc3ncc(NC4CCNCC4)cc3n2)n1` [Compound 113, 6-[3-(6-methyl-2-pyridyl)-1H-pyrazol-4-yl]-N-(4-piperidyl)-1,5-naphthyridin-3-amine], for which the Ki in assay [1] was 0.0398 to 0.316 nM. The IC50 in assay [2] is 200 to 1260 nM.
For `Cc1cccc(-c2n[nH]cc2-c2ccc3ncc(-c4cc(C)nn4C)cc3n2)n1` [Compound 596, 7-(2,5-dimethylpyrazol-3-yl)-2-[3-(6-methyl-2-pyridyl)-1H-pyrazol-4-yl]-1,5-naphthyridine] the same measures were under 0.0316 nM and under 20 nM.
On to `Cc1cccc(-c2[nH]ncc2-c2ccc3nccc(C(=O)OC4CNC4)c3c2)n1` [Compound 1237, azetidin-3-yl 6-[5-(6-methyl-2-pyridyl)-1H-pyrazol-4-yl]quinoline-4-carboxylate], for which the Ki in assay [1] was 0.0398 to 0.316 nM. Besides, the IC50 in assay [2] is 25.1 to 158 nM.
`Cc1cccc(-c2n[nH]cc2-c2ccc3ncc(-c4cn(C)nn4)cc3n2)n1` [Compound 71, 2-[3-(6-methyl-2-pyridyl)-1H-pyrazol-4-yl]-7-(1-methyltriazol-4-yl)-1,5-naphthyridine]: the Ki in assay [1] is under 0.0316 nM. Further, in assay [2], the IC50 was 25.1 to 158 nM.
`Cc1cccc(-c2[nH]cnc2-c2ccc3ncc(-c4ncc(C5=CCNCC5)s4)cc3c2)n1` [Compound 1084, 2-[6-[5-(6-methyl-2-pyridyl)-1H-imidazol-4-yl]-3-quinolyl]-5-(1,2,3,6-tetrahydropyridin-4-yl)thiazole]: in assay [1], the Ki is 0.0398 to 0.316 nM. In assay [2], the IC50 was under 20 nM.
Regarding `Cc1nc(-c2n[nH]cc2-c2ccc3ncc(-c4nc5c([nH]4)CCNCC5)cc3n2)ccc1F` [Compound 611, 2-[6-[3-(5-fluoro-6-methyl-2-pyridyl)-1H-pyrazol-4-yl]-1,5-naphthyridin-3-yl]-1,4,5,6,7,8-hexahydroimidazo[4,5-d]azepine], the Ki in assay [1] was under 0.0316 nM. Besides, the IC50 in assay [2] is 1580 to 10000 nM.
For `Cc1cccc(-c2[nH]cnc2-c2ccc3ncc(N4CC(N(C)C)C4)cc3c2)n1` [Compound 648, N,N-dimethyl-1-[6-[5-(6-methyl-2-pyridyl)-1H-imidazol-4-yl]-3-quinolyl]azetidin-3-amine], the Ki in assay [1] was 0.0398 to 0.316 nM. In addition, the IC50 in assay [2] is 25.1 to 158 nM.
In the case of `Cc1nc(-c2n[nH]cc2-c2ccc3ncc(-c4cnc5n4CCNC5)cc3n2)ccc1F` [Compound 245, 2-[3-(5-fluoro-6-methyl-2-pyridyl)-1H-pyrazol-4-yl]-7-(5,6,7,8-tetrahydroimidazo[1,2-a]pyrazin-3-yl)-1,5-naphthyridine], the Ki in assay [1] was 0.0398 to 0.316 nM. The IC50 in assay [2] is 25.1 to 158 nM.
Consider `Cc1cccc(-c2nnn(C)c2-c2ccc3ncc(N4CCC(N(C)C)C4)cc3c2)n1` (racemic) [Compound 25, rac-(3S)-N,N-dimethyl-1-[6-[3-methyl-5-(6-methyl-2-pyridyl)triazol-4-yl]-3-quinolyl]pyrrolidin-3-amine], for which the Ki in assay [1] was 0.0398 to 0.316 nM. Besides, the IC50 in assay [2] was 25.1 to 158 nM.
As for `Cc1cccc(-c2[nH]cnc2-c2ccc3ncc(-c4cccc(C(=O)O[C@@H]5CCN(C)C5)c4)cc3c2)n1` [Compound 608, [(3R)-1-methylpyrrolidin-3-yl] 3-[6-[5-(6-methyl-2-pyridyl)-1H-imidazol-4-yl]-3-quinolyl]benzoate], the Ki in assay [1] was 0.0398 to 0.316 nM. Also, the IC50 in assay [2] was 25.1 to 158 nM.
`Cc1cccc(-c2[nH]cnc2-c2ccc3ncc(-c4cn[nH]c4)cc3c2)n1` [Compound 430, 6-[5-(6-methyl-2-pyridyl)-1H-imidazol-4-yl]-3-(1H-pyrazol-4-yl)quinoline]: in assay [1], the Ki is under 0.0316 nM. The IC50 in assay [2] was under 20 nM.
Turning to `Cc1cccc(-c2n[nH]cc2-c2ccc3nccc(C(N)=O)c3n2)n1` [Compound 806, 6-[3-(6-methyl-2-pyridyl)-1H-pyrazol-4-yl]-1,5-naphthyridine-4-carboxamide], in assay [1], the Ki was 0.398 to 3.16 nM. Besides, in assay [2], the IC50 was 25.1 to 158 nM.
For the compound `COc1[nH]nc(-c2cccc(C)n2)c1-c1ccc2ncc(N3CCC(N4CCN(C)CC4)CC3)cc2n1` [Compound 112, 2-[5-methoxy-3-(6-methyl-2-pyridyl)-1H-pyrazol-4-yl]-7-[4-(4-methylpiperazin-1-yl)-1-piperidyl]-1,5-naphthyridine], the Ki in assay [1] is 0.0398 to 0.316 nM. For the same compound, the IC50 in assay [2] was 200 to 1260 nM.
The matching figures for `Cc1cccc(-c2[nH]cnc2-c2ccc3ncc(-c4cccc(C(=O)O[C@@H]5CCNC5)c4)cc3c2)n1` [Compound 736, [(3R)-pyrrolidin-3-yl] 3-[6-[5-(6-methyl-2-pyridyl)-1H-imidazol-4-yl]-3-quinolyl]benzoate]: 0.0398 to 0.316 nM and 25.1 to 158 nM.
Turning to `Cc1cccc(-c2[nH]cnc2-c2ccc3ncc(C4=CCCNC4)cc3c2)n1` [Compound 259, 6-[5-(6-methyl-2-pyridyl)-1H-imidazol-4-yl]-3-(1,2,3,6-tetrahydropyridin-5-yl)quinoline], the Ki in assay [1] was 0.0398 to 0.316 nM. In addition, the IC50 in assay [2] is under 20 nM.
For `Cc1cccc(-c2[nH]cnc2-c2ccc3ncc(C4=CCN(C(=O)C5CCCNC5)CC4)cc3c2)n1` (stereo not shown) [Compound 1150, [4-[6-[5-(6-methyl-2-pyridyl)-1H-imidazol-4-yl]-3-quinolyl]-3,6-dihydro-2H-pyridin-1-yl]-(3-piperidyl)methanone], in assay [1], the Ki was 0.0398 to 0.316 nM. In assay [2], the IC50 was 25.1 to 158 nM.
For `Cc1nc(-c2n[nH]cc2-c2ccc3ncc(-c4nnn5c4NCCC5)cc3n2)ccc1F` [Compound 263, 2-[3-(5-fluoro-6-methyl-2-pyridyl)-1H-pyrazol-4-yl]-7-(4,5,6,7-tetrahydrotriazolo[1,5-a]pyrimidin-3-yl)-1,5-naphthyridine] the same measures were 0.0398 to 0.316 nM and 25.1 to 158 nM.
Consider `Cc1cccc(-c2nn3c(c2-c2ccc4ncc(-c5cn[nH]c5)cc4c2)CNCC3)n1` [Compound 402, 6-[2-(6-methyl-2-pyridyl)-4,5,6,7-tetrahydropyrazolo[1,5-a]pyrazin-3-yl]-3-(1H-pyrazol-4-yl)quinoline], for which the Ki in assay [1] is 0.0398 to 0.316 nM. Moreover, the IC50 in assay [2] is 25.1 to 158 nM.
In the case of `Cc1cccc(-c2n[nH]cc2-c2ccc3ncc(-c4cccn(C)c4=O)cc3n2)n1` [Compound 12, 1-methyl-3-[6-[3-(6-methyl-2-pyridyl)-1H-pyrazol-4-yl]-1,5-naphthyridin-3-yl]pyridin-2-one], the Ki in assay [1] was under 0.0316 nM. Moreover, in assay [2], the IC50 is under 20 nM.
For the compound `Cc1cccc(-c2[nH]cnc2-c2ccc3ncc(-c4cc(C(=O)O)ccn4)cc3c2)n1` [Compound 1137, 2-[6-[5-(6-methyl-2-pyridyl)-1H-imidazol-4-yl]-3-quinolyl]pyridine-4-carboxylic acid], in assay [1], the Ki is 0.0398 to 0.316 nM. Further, the IC50 in assay [2] is 1580 to 10000 nM.

These data come from patent publication US11590116B2 (THERAVANCE BIOPHARMA R&D IP, LLC, priority 2019, dated 2023).
